# Results reported in patent US5866588A, “Imidazopyridine derivatives” (British Biotech Pharmaceuticals Ltd., priority 1995, dated 1999).
# Key:
# [1] = test system: PAF-Induced Platelet Aggregation; assay: Inhibition of PAF-Induced Platelet Aggregation; assay type: cell-based, rabbit (New Zealand White); settings: Oryctolagus cuniculus; rabbit platelet-rich plasma, PAF 100 ngml^-1
# Description: Inhibition of PAF-Induced Platelet Aggregation
# Male New Zealand White rabbits (3.0-3.5 kg) were anaesthetised by intravenous administration of sodium pentobarbitone, 18 mg.ml^-1, via a marginal ear vein. The trachea was exposed and connected to a respiratory pump (Harvard UK) to provide artificial ventilation. A carotid artery was exposed and cannulated and the animal was exsanguinated. Whole blood was collected in a syringe containing tri-sodium citrate (3.8% w/v) to a ratio of 1 part citrate:9 parts blood.
# Collected blood was centrifuged at 180×g for 15 minutes at room temperature (21° C.) to prepare platelet-rich plasma (PRP). The remaining blood was then centrifuged at 1800×g for 10 minutes at room temperature to obtain platelet poor plasma (PPP).
# Platelet count of the PRP was measured using a Technicon H1 blood cell differential analyser (Bayer Diagnostics UK) and adjusted with PPP to obtain a final platelet count of 500,000 platelets per μl of plasma, this being the normal physiological platelet count for rabbits. Corrected PRP was left to equilibrate at room temperature for 30 minutes before use.
# Aggregation studies were carried out using a 4-channel aggregometer (PAP-4C, BioData USA) as follows: 400 μl aliquots of PRP were placed in siliconised cuvettes and incubated to 37° C. for 1 to 2 minutes in the heating block of the aggregometer. Baseline (100% aggregation) was set up using PPP (500 μl in a siliconised cuvette). The PRP was placed into a measuring well of the aggregometer, and a stirrer bar was added. The sample was stirred at 1000 rpm. The machine was activated to set the 0% aggregation level. Test compound or vehicle (50 μl) was added to the PRP, where any effects on the baseline was noted. PAF (100 ngml^-1 as 50 μl aliqout) was added to the PRP 3 minutes after test compound or vehicle. Aggregation was measured for a further 4 minutes after PAF addition and the maximum aggregation over the 4 minutes was recorded.
# The investigation of different concentrations of test compound was performed in triplicate. Data were expressed as […] of the sample and test compound data were compared to vehicle data to obtain % inhibition of the PAF-induced aggregation from which IC50 values could be determined.
# PAF was made up in sterile saline (NaCl 0.9% w/v) containing BSA (0.25% w/v) from an initial stock solution (10 mgml^-1 in EtOH). Test compounds were made up as 1×10^-3 M stock solutions in sterile saline containing molar equivalents of 1N HCl (v/v) or in DMSO.
# In the results which follow, a comparison compound A was included. Compound A was prepared as described in EP-A-260613 (G. D. Searle), but is not part of the present invention. As appears from the results of the comparison, compounds of this invention, all of which incorporate a fragment capable of H1 antagonist activity, are observed to show improved PAF antagonist activity over compound A.
# [2] = target: T1, histamine-1 receptors on Hela-S3 cells (Homo sapiens, UniProt P35367); assay: Inhibition of [^3 H]-Pyrilamine Binding to Histamine-1 Receptors on Hela-S3 Cells; settings: 0.5 h; 1 μM test compound; [^3 H]-pyrilamine remaining specifically bound; 37° C., 30 minutes; read-out: % Specific Binding at 1 μM
# T1 construct: histamine-1 receptors on Hela-S3 cells (American Type Culture Collection); host or cells: HeLa-S3 cells (intact cell suspension)
# Description: Inhibition of [^3 H]-Pyrilamine Binding to Histamine-1 Receptors on Hela-S3 Cells
# The inhibition of [^3 H]-pyrilamine binding to histamine-1 receptors on Hela-S3 cells (American Type Culture Collection) was determined by isotopic labelling and filtration techniques. A suspension of the cells in buffer (25 ml, 0.5% Bovine Serum Albumin, 0.1% sodium azide, phosphate buffered saline (PBS)) was centrifuged at 1000 rpm for 5 minutes in a JOUAN CR 422 centrifuge, collected, resuspended in buffer (25 ml) and spun again. The cells were counted using a haemocytometer and resuspended in buffer to provide a final concentration of 4.5×10^6 cells ml^-1. A portion of the Hela-S3 cell suspension (1 ml) was added to each assay tube containing 25 μl of vehicle (50% DMSO/buffer) or 25 μl of test compound solution (dissolved in DMSO and diluted with sufficient PBS to give a final test concentration of 1 μM) and 25 μl of [^3 H]-pyrilamine (supplied by Amersham International and diluted with PBS to 3 nM). The tubes were mixed, incubated at 37° C. for 30 minutes and then spun at 4° C. at 2000 rpm for 2 minutes. The supernatant was removed and the cells resuspended in buffer (repeated ×2). The cells were suspended in 300 μl of a 2:1 solution of 1M sodium hydroxide and 1% sodium dodecyl sulphate. The tubes were left ovemight before the contents were tranferred to a scintillation vial, treated with 10 ml, OPTIPHASE MP scintillation fluid (OPTIPHASE MP is a trade mark) and the radioactivity counted in a scintillation counter. Non-displacable binding (NDB) was determined using Astemizole (5×10^-5 M) in place of test compounds. Defining the counts for total binding from the vehicle control sample as "TB" and the counts for total binding with antogonist as "TBA" the percentage specific binding (% SB) can be determined from the following equation.
# T1 sequence (P35367 whole entry): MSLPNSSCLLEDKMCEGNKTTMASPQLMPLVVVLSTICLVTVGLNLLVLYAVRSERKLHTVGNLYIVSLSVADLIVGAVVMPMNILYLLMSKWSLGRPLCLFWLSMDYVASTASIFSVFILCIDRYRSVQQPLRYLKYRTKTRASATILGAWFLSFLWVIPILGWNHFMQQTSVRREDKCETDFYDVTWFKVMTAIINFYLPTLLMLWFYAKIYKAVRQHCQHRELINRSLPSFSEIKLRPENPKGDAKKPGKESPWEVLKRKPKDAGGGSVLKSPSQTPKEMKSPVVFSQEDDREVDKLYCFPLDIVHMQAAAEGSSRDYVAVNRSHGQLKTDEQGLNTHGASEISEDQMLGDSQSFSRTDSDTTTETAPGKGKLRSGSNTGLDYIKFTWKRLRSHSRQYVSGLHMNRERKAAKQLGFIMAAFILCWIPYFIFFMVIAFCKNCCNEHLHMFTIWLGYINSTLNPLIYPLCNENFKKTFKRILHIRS
compound,measurement,setting,value
"Cc1ccc(/C(=C\CN2CCCC2)c2cccc(/C=C/CN(C(=O)c3ccc(Cn4c(C)nc5cnccc54)cc3)C3CC(C)CC(C)C3)n2)cc1 (centres unmarked) [Example 11, N-3,5-Dimethylcyclohexyl-4-(1H-2-methylimidazo[4,5-c]pyridin-1-ylmethyl)-N-{3-[6-(3-pyrrolidin-1-yl-1-{4-tolyl}-prop-1E-enyl)-pyridin-2-yl]-prop-2E-enyl)-benzamide]",IC50,[1],176 nM
same,activity at 1 µM,[2],60%
"Cc1ccc(/C(=C\CN2CCCC2)c2cccc(/C=C/COC(=O)c3ccc(Cn4c(C)nc5cnccc54)cc3)n2)cc1 [Example 1, 4-(1H-2-Methylimidazo[4,5-c]pyridin-1-ylmethyl)benzoic acid 3-[6-(3-pyrrolidin-1-yl-1-{4-tolyl}-prop-1E-enyl)-pyridin-2-yl]prop-2E-enyl ester]",IC50,[1],2100 nM
same,activity at 1 µM,[2],16%
"Cc1ccc(/C(=C\CN2CCCC2)c2cccc(/C=C/CN(C(=O)c3ccc(Cn4c(C)nc5cnccc54)cc3)C3CCCC3)n2)cc1 [Example 8, N-Cyclopentyl-4-(1H-2-methylimidazo[4,5-c]pyridin-1-ylmethyl)-N-{3-[6-(3-pyrrolidin-1-yl-1-{4-tolyl}-prop-1E-enyl)-pyridin-2-yl]-prop-2E-enyl}-benzamide]",IC50,[1],92 nM
same,activity at 1 µM,[2],34%
"Cc1ccc(/C(=C\CN2CCCC2)c2cccc(/C=C/CN(C(=O)c3ccc(Cn4c(C)nc5cnccc54)cc3)C(C)C)n2)cc1 [Example 12, N-iso-Propyl-4-(1H-2-methylimidazo[4,5-c]pyridin-1-ylmethyl)-N-{3-[6-(3-pyrrolidin-1-yl-1-{4-tolyl}-prop-1E-enyl)-pyridin-2-yl]-prop-2E-enyl)-benzamide]",IC50,[1],58 nM
same,activity at 1 µM,[2],64%
"Cc1ccc(/C(=C\CN2CCCC2)c2cccc(CCCN(C(=O)c3ccc(Cn4c(C)nc5cnccc54)cc3)C3CCCCC3)n2)cc1 [Example 17, N-Cyclohexyl-4-(1H-2-methylimidazo[4,5-c]pyridin-1-ylmethyl)-N-{3-[6-(3-pyrrolidin-1-yl-1-{4-tolyl}-prop-1E-enyl)-pyridin-2-yl]-propyl}-benzamide]",IC50,[1],315 nM
same,activity at 1 µM,[2],58%
"CCCCN(C/C=C/c1cccc(/C(=C/CN2CCCC2)c2ccc(C)cc2)n1)C(=O)c1ccc(Cn2c(C)nc3cnccc32)cc1 [Example 22, N-Butyl-4-(1H-2-methylimidazo[4,5-c]pyridin-1-ylmethyl)-N-{3-[6-(3-pyrrolidin-1-yl-1-{4-tolyl}-prop-1E-enyl)-pyridin-2-yl]-prop-2E-enyl}-benzamide]",IC50,[1],62 nM
same,activity at 1 µM,[2],31%
"CN(C(=O)c1ccc(Cn2cnc3cnccc32)cc1)C1CCCCC1 [Compound A, reference compound]",IC50,[1],74000 nM
"Cc1ccc(/C(=C\CN2CCCC2)c2cccc(/C=C/CN(CC(C)C)C(=O)c3ccc(Cn4c(C)nc5cnccc54)cc3)n2)cc1 [Example 7, N-iso-Butyl-4-(1H-2-methylimidazo[4,5-c]pyridin-1-ylmethyl)-N-{3-[6-(3-pyrrolidin-1-yl-1-{4-tolyl}-prop-1E-enyl)-pyridin-2-yl]-prop-2E-enyl}-benzamide]",IC50,[1],133 nM
same,activity at 1 µM,[2],40%
"CCC(C)N(C/C=C/c1cccc(/C(=C/CN2CCCC2)c2ccc(C)cc2)n1)C(=O)c1ccc(Cn2c(C)nc3cnccc32)cc1 (racemic) [Example 9, N-(R,S) sec-Butyl-4-(1H-2-methylimidazo[4,5-c]pyridin-1-ylmethyl)-N-(E)-{3-[6-(3-pyrrolidin-1-yl-1-{4-tolyl}-prop-1E-enyl)-pyridin-2-yl]-prop-2-enyl}-benzamide]",IC50,[1],43 nM
same,activity at 1 µM,[2],63%
"Cc1ccc(/C(=C\CN2CCCC2)c2cccc(/C=C/CNC(=O)c3ccc(Cn4c(C)nc5cnccc54)cc3)n2)cc1 [Example 5, 4-(1H-2-Methylimidazo[4,5-c]pyridin-1-ylmethyl)-N-{3-[6-(3-pyrrolidino-1-{4-tolyl}-prop-1E-enyl)-pyridin-2-yl]-prop-2E-enyl}-benzamide]",IC50,[1],2200 nM
same,activity at 1 µM,[2],16%
"Cc1ccc(/C(=C\CN2CCCC2)c2cccc(/C=C/CN(C)C(=O)c3ccc(-n4c(C)nc5cnccc54)cc3)n2)cc1 [Example 26, N-Methyl-4-(1H-2-methylimidazo[4,5-c]pyridin-1-yl)-N-{3-[6-(3-pyrrolidin-1-yl-1-{4-tolyl}-prop-1E-enyl)-pyridin-2-yl]-prop-2E-enyl}-benzamide]",activity at 1 µM,[2],26%
"Cc1ccc(/C(=C\CN2CCCC2)c2cccc(CCCOC(=O)c3ccc(Cn4c(C)nc5cnccc54)cc3)n2)cc1 [Example 2, 4-(1H-2-Methylimidazo[4,5-c]pyridin-1-ylmethyl)benzoic acid 3-[6-(3-pyrrolidin-1-yl-1-{4-tolyl}-prop-1E-enyl)-pyridin-2-yl]propyl ester]",IC50,[1],542 nM
same,activity at 1 µM,[2],15%
"Cc1ccc(/C(=C\CN2CCCC2)c2cccc(/C=C/CN(CCC(C)C)C(=O)c3ccc(Cn4c(C)nc5cnccc54)cc3)n2)cc1 [Example 6, N-(3-Methyl-but-1-yl)-4-(1H-2-methylimidazo[4,5-c]pyridin-1-ylmethyl)-N-{3-[6-(3-pyrrolidin-1-yl-1-{4-tolyl}-prop-1E-enyl)-pyridin-2-yl]-prop-2E-enyl}-benzamide]",IC50,[1],333 nM
same,activity at 1 µM,[2],29%
"Cc1ccc(/C(=C\CN2CCCC2)c2cccc(/C=C/CN(C(=O)c3ccc(Cn4c(C)nc5cnccc54)cc3)C(C)(C)C)n2)cc1 [Example 10, N-tert-Butyl-4-(1H-2-methylimidazo[4,5-c]pyridin-1-ylmethyl)-N-{3-[6-(3-pyrrolidin-1-yl-1-{4-tolyl}-prop-1E-enyl)-pyridin-2-yl]-prop-2E-enyl}-benzamide]",IC50,[1],2010 nM
same,activity at 1 µM,[2],62%
